{"source": "patent US20090176711A1", "about": "“INHIBITORS OF AMYLOID PRECURSOR PROTEIN PROCESSING” (priority 2008, published 2009)", "key": {"[1]": {"tested_on": "γ-secretase (membrane fractions of N2a cells)", "experiment": "γ-Secretase activity assay on membrane fractions of N2a cells", "type": "biochemical, mouse", "conditions": "200 μM peptide, 12.5 μM fluorogenic substrate, 1 hour preincubation", "method": "Since γ-secretase is composed of four components, cloning of γ-secretase gene is impossible. Therefore, cell extracts were used as γ-secretase source. To obtain the cell extracts, after cell lysis with extraction buffer, the lysate was centrifuged at 10,000×g for 1 minute. Afterward, 2× reaction buffer and fluorogenic substrate was mixed and added to the cell lysate. Then, this mixture was incubated at 37° C. and γ-secretase activity was detected at excitation 335 to 355 nm and emission 495 to 510 nm.\nγ-Secretase activity assay was performed on membrane fractions of N2a cells in the presence of several complementary peptides. After 12.5 μM fluorogenic substrate and 200 μM each of the complementary peptides were preincubated for 1 hour, γ-secretase was added to the mixture. In the course of time, the fluorogenic substrate was cleaved by the γ-secretase."}, "[2]": {"tested_on": "γ-secretase cleavage in KEK293 APP cells", "experiment": "Cell based γ-secretase assay (α-CTF Western)", "set-up": "species or system human", "conditions": "cells treated for 9 hours", "method": "In order to test these peptides in the cell for their inhibitory effect on γ-secretase cleavage, a cell based assay was developed. After KEK293 APP cells were cultured in 6 well culture plates with 90% confluency, the cells were treated for 9 hours with N-[N-(3,5-difluorophenacetyl)-L-alanyl]-(S)-phenylglycine t-butyl ester (DAPT) (Dovey H F et al, J. Neurochemistry 2001;76:173-181), which is a known γ-secretase inhibitor, and complementary peptides. The cells in each well were lysed and these lysates were separated with 15% tris-tricine gel. Western analysis was performed with R1 antibody as primary antibody and goat anti-rabbit-HRP as secondary antibody."}, "[3]": {"tested_on": "cleavage of Sub M by rhBACE1", "experiment": "HPLC analysis of the cleavage of Sub M by rhBACE1", "type": "biochemical, human", "conditions": "25-fold amount of inhibitor, 420 nM β-secretase", "method": "Substrate M (100 μM) was preincubated with complementary peptides ([…]) in assay buffer (100 μl) overnight at RT. rhBACE (140 nM) in assay buffer was added and incubated for 11 hr at RT. Cleavage products of Substrate M by rhBACE were quantitated after separation by C-18 reversed-phase column chromatography (GRACE VyDAC).\nOne of the advantages of the APP inhibitor described in the present invention is that it is a peptide or a mimetic that bind to the β-secretase cleavage site of APP, thus not affecting other β-secretase substrates. To confirm the specificity of the inventive APP inhibitor, two different types of substrates were used, APP Sub M and ST6Ga11. Both substrates are cleaved by β-secretase under normal conditions and the effect of the inventive APP inhibitor on the substrate cleavage was monitored by HPLC (See the schematic diagram in FIG. 16.) To carry out these experiments, the concentration of β-secretase required for cleavage of both substrates was determined as shown in FIG. 17. For substantial cleavage of ST6Ga11 substrate, 420 nM of the enzyme was required. Therefore, 420 nM of β-secretase was used for the following experiment.\nReversed-phase HPLC was also used to analyze the products of enzyme action in vitro. […] The cleavage products were identified at 215 nm and quantitated by integrating the area under each peak. […]"}, "[4]": {"tested_on": "cleavage of Substrate M by β-secretase", "experiment": "Inhibition of cleavage of Substrate M by β-secretase by complementary and deletion peptides (Examples 1, 5, 6; assay format not stated)", "type": "biochemical", "conditions": "for concentration dependent inhibitory activity, activity group: various concentrations, Substrate M (FIG. 8)", "method": "So far we have focused on c-Sub M peptide. Serial deletions were made from N-terminus or C-terminus of c-Sub M (FIG. 5), and we investigated effect of the deletions on the cleavage of Substrate M. The optimum peptide/substrate ratio for inhibition on the cleavage of substrate was determined by observing the inhibition percentage at various peptide/substrate ratios (FIG. 4). Subsequently, the inhibitory activity of the deletion peptides were tested at 10 inhibitor/substrate ratio and the concentration of the Substrate M was 50 μM. Deletion of the first two amino acids from the N-terminus had little effect on the activity and deletion of five amino acids from the C-terminus of c-Sub M had little effect on the inhibitory activity (FIG. 6). Further deleted peptides were tested for inhibitory activity on the cleavage of Substrate M (FIG. 7).\nThe above-mentioned peptides that have inhibitory activity were tested at various concentrations for their inhibitory activities on their mutant substrate Substrate M (FIG. 8)."}, "[5]": {"tested_on": "APP processing in HEK293-APP cells", "experiment": "APP inhibitor activity on HEK293-APP cells (βCTF Western blot)", "type": "cell-based, human", "conditions": "γ-secretase inhibitor and cholesterol added", "method": "In the neuronal cells of the brain, APP is processed by α-secretase or β-secretase. To investigate the effects of the inhibitors on the cell, a cell based assay system was developed as described in FIG. 10. C-terminal fragment of APP remaining on the cell membrane was detected by Western blot. The resulting C-terminal fragments, αCTF or βCTF are further processed by γ-secretase. However, if the cells are treated with the γ-secretase inhibitor, this processing is blocked. As a result, αCTF or βCTF accumulate in the cell. If β-secretase inhibitor or APP inhibitor is added, this processing is blocked and βCTF disappears.\nIn addition, γ-secretase inhibitor and cholesterol were added to the cells to increase βCTF level. Commercially available peptide-based β-secretase inhibitor was included as control (Lane 6, FIG. 11). To detect the N-terminal fragment of β-amyloid which is a product of APP processing, 6E10 antibody was employed. […] Recently, it has been reported that the commercially available peptide-based inhibitor had to be linked to an oligoarginine transporter peptide to have inhibitory activity against cells. Therefore, mimetic approach is adopted to produce cell permeable analogs. (Chang et al. J. Neurochemistry 2004; 89:1409-1416).\nAfter confirming the ability of the oligo-arginine coupled APP inhibitors to enter the cells, the inhibitors were applied to HEK293-APP cells overexpressing APP to test their inhibitory activities on APP processing. […] This inhibitor started to show significant inhibitory activity beginning from 0.1 μM (lower panel)."}, "[6]": {"target": "T1, Substrate W (Sub W, SEVKMDAEFR; β-secretase cleavage site of wild type APP) (Homo sapiens, UniProt P05067)", "T1 construct": "[…]; purchased Peptron, Inc; host or cells: chemical synthesis", "experiment": "Binding of biotin-labeled Substrate W to immobilized complementary (HC) peptides", "method": "(§1) Complementary peptides (0.2, 2, 20, and 200 μM) were dissolved in phosphate buffered saline (PBS) (pH 7.4) and fixed to microtiter wells for 5 hr at 37° C. The wells were blocked with blocking buffer (3% BSA/PBS) for 1 hr at 37° C. Either N-terminally biotinylated Substrate W or M (20 μM) in blocking buffer was added and incubated for overnight at 4° C. Streptavidin-horseradish peroxidase in blocking buffer was added to detect resulting bound substrates. The plate was incubated for 2 hr at room temperature (RT), followed by addition of 3,3′,5,5′-tetramethyl-benzidine (TMB) as substrate for horseradish peroxidase for color reaction.\nIn particular, for Substrate W, complementary peptides (200 μM) dissolved in phosphate buffered saline (PBS) (pH 7.4) were chemically coupled to Reacti-Bind Maleic Anhydride Activated Polystyrene wells (Pierce Biotechnology, Inc.) for overnight at room temperature (RT). Remaining active sites of the plate were inactivated by adding ethanolamine (1 M) for 1 hr at RT. The wells were blocked with blocking buffer (3% BSA/PBS) for 1 hr at RT. N-terminally biotinylated Substrate W (20 μM) in blocking buffer was added and incubated for 3 hr at RT. Streptavidin-horseradish peroxidase in blocking buffer was added to detect resulting bound substrates. The plate was incubated for 2 hr at room temperature (RT), followed by addition of 3,3′,5,5′-tetramethyl-benzidine (TMB) as substrate for horseradish peroxidase for color reaction.\n(§2) Reacti-Bind™ maleic anhydride-activated polystyrene plate (Pierce, IL, USA) was coated with 50 μl of HC peptide (200 μM in distilled water) by chemical coupling for 3 h at room temperature (RT) and washed three times with phosphate buffered saline (PBS) containing 0.05% tween 20 (PBST). The plate was blocked with blocking buffer (0.5% gelatin in PBS) for 1 h at RT. After discarding blocking buffer, biotinylated BACE1 substrates (200 μM) in blocking buffer was applied on the plate and incubated for 2.5 h at RT. Each well was washed three times with PBST. The bound biotinylated BACE1 substrates were detected by incubation with streptavidin-horseradish peroxidase (Str-HRP, 125 mU/ml in blocking buffer) for 2 h at RT. Color reaction was carried out with 50 μl of 3,3′,5,5′-Tetramethylbenzidine Liquid Substrate (Sigma-Aldrich, MO, USA). After stopping the reaction by addition of an equal volume of 1 N HCl, absorbance at 450 nm was read in an automated ELISA reader (EL 312e, Bio-Tek Instruments, VT, USA). All assays were carried out in duplicate."}, "HEK293-APP cells": {"tested_on": "HEK293-APP cells", "experiment": "Transport of peptides into cells (FITC label)", "type": "cell-based, human", "text": "To overcome the problem of APP inhibitor's inability to penetrate across the cell membrane, APP inhibitors were coupled with oligo-arginine (R9 means 9 Arginines), which is known to be a transporter peptide. These coupled peptides were labeled with FITC (Fluorescein isothiocyanate) using a linker AHX (aminohexanoic acid) to investigate whether the inhibitors pass through the cell membrane. FITC-AHX-c-Sub M-R9 and FITC-AHX-c-Sub MΔN1C1-R9 were made.\nOligo-arginine coupled APP inhibitors that were labeled with FITC were added to HEK293-APP cells to see whether the peptides pass through the cell membrane."}, "rhBACE1": {"target": "T2, rhBACE1 (Homo sapiens, UniProt P56817)", "T2 construct": "purchased R&D Systems, Inc", "T2 sequence (P56817 46-501)": "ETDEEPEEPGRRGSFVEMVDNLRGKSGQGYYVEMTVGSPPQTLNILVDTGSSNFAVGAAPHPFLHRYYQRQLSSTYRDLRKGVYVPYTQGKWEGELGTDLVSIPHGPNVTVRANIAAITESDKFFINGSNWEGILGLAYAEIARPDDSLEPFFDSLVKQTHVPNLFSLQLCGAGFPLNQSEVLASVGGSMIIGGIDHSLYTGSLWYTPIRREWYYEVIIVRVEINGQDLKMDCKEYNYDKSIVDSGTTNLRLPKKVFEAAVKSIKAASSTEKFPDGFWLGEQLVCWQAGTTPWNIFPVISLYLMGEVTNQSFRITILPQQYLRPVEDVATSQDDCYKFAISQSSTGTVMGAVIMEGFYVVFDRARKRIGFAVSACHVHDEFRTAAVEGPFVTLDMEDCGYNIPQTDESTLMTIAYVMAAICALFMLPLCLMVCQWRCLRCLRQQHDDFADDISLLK", "experiment": "ELISA binding of rhBACE1 to immobilized c-Sub M", "text": "In one embodiment of the present invention, four HC decapeptides targeted to either wild type APP or APPsw may be designed. […] Therefore, there is possibility that c-Sub M or any compounds derived from c-Sub M may inhibit production of Aβ from wild type APP in cells."}, "[7]": {"tested_on": "Substrate M (Sub M, SEVNLDAEFR; β-secretase cleavage site of APPsw)", "experiment": "Binding of biotin-labeled Substrate M to immobilized complementary (HC) peptides", "conditions": "for binding activity for Sub M: HC peptides chemically coupled to plate, bio-Sub M", "method": "as §1, §2"}}, "note": "“Also recorded” adds a separate entry of the source. No end group written: not given here.", "data": [{"molecule": "PQQYRCHRQR [rCh2 (3′→5′)]", "values": [{"measurement": "inhibitory effect on γ-secretase activity", "setting": "[1]", "value": "about 80%"}]}, {"molecule": "C[C@H](NC(=O)Cc1cc(F)cc(F)c1)C(=O)N[C@H](C(=O)OC(C)(C)C)c1ccccc1", "note": "[DAPT, N-[N-(3,5-difluorophenacetyl)-L-alanyl]-(S)-phenylglycine t-butyl ester]", "values": [{"measurement": "inhibition of γ-secretase activity in cells (α-CTF accumulation)", "setting": "[2]", "value": "inhibits γ-secretase activity very effectively"}]}, {"molecule": "FCIQIHF (also: cyclic, mode of cyclisation not given here) [c-Sub M ΔN2C1]", "values": [{"measurement": "Sub M cleavage blocked", "setting": "[3]", "value": "about 60%"}, {"measurement": "concentration dependent inhibitory activity, activity group", "setting": "[4]", "value": "most active group"}]}, {"molecule": "SEFCIQIHFR-NH2 [c-Sub M, SEFCIQIHFR]", "values": [{"measurement": "inhibitory activity on APP processing (βCTF)", "setting": "[5]", "value": "does not inhibit the processing of APP in cells; also recorded: none of the inhibitors tested showed inhibitory activity"}, {"measurement": "inhibition of cleavage of Substrate M by β-secretase", "setting": "[4]; FIG. 4", "value": "inhibit cleavage"}, {"measurement": "concentration dependent inhibitory activity, activity group", "setting": "[4]", "value": "less activity"}, {"measurement": "binding to Sub W relative to c-Sub W", "setting": "[6]; HC peptides chemically coupled, bio-Sub W", "value": 4, "unit": "fold"}, {"measurement": "binding to Substrate W", "setting": "[6]; complementary peptide immobilized, biotin-labeled Substrate W", "value": "binds the wild type substrate Sub W efficiently"}, {"measurement": "transport into the cells", "setting": "HEK293-APP cells", "value": "does not enter the cells"}, {"measurement": "binding to rhBACE1", "setting": "rhBACE1", "value": "does not bind to rhBACE1"}, {"measurement": "binding activity for Sub M", "setting": "[7]", "value": "highest binding"}, {"measurement": "binding activity for Sub M", "setting": "[7]; listed as c-Sub", "value": "bound"}, {"measurement": "binding to Substrate M", "setting": "[7]; complementary peptide immobilized, biotin-labeled Substrate M", "value": "binds to Sub M appreciably and bind and binds its substrate Sub M"}, {"measurement": "absorbance in binding test", "setting": "[7]; substrate not specified", "value": "high absorbance"}]}]}
